Assay results as given in patent US8222279B2, “Small molecule insulin mimetics absent quinones” (Duke University, priority 2006, dated 2012).

Tests used:
human insulin receptor = molecular target: T1, human insulin receptor (Homo sapiens, UniProt P06213); assay: Insulin receptor autophosphorylation (phosphotyrosines 1162/1163) immunoblot in CHO-IR cells; type: cell-based; conditions: increasing concentrations, 10 min at 37° C., immunoblot not shown
T1 construct: expressed in transfected cells; host or cells: CHO-IR (Chinese hamster ovary cells)
Excerpt: These compounds were examined in a cell-based assay for their ability to mimic the action of insulin. In this case, Chinese hamster ovary (CHO) cells stably transfected with a gene for human insulin receptor and expressing it on their surface were used. CHO-IR cells were stimulated with increasing concentrations of insulin, LDIV122 (same as 198), LDIV148 (same as 196), ZL-196 (an insulin mimic that includes a quinone), and LDIV99 (same as 194). Whole-cell lysates were immunoblotted with antibodies to phosphotyrosines 1162 and 1163 that lie on the activation loop in the beta-subunit of the insulin receptor.
Materials. Antibodies to tyrosine phosphorylated IR(Tyr1162/Tyr1163) are from BioSource (Camarillo, Calif.).
CHO-IR cells (Chinese hamster ovary cells overexpressing the β isoform insulin receptor) were cultured in Ham's F12 supplemented with 10% FCS, 2 mM glutamax and gentamicin at 37° C. in a 5% CO2 atmosphere. Cells were serum starved for 72 h in 12-well plates, then stimulated with increasing concentrations of insulin or compounds in KRP-Hepes for 10 min at 37° C. The cells are washed with ice-cold phosphate-buffered saline and solubilized in 2×SDS-sample buffer (50 mM Tris-HCl, pH 7.4, 5% glycerol, 2% SDS, 0.005% bromophenol blue) containing 2 mM sodium orthovanadate and 200 mM sodium fluoride. […]

[1] = system: differentiated PC12 neurons; assay: Protection of differentiated PC12 neurons from apoptotic cell death induced by NGF withdrawal; type: cell-based; conditions: 100 ng/ml NGF; 48 h; control cells 64±1%
Method: A library of asterriquinones was screened using a 96-well ELISA assay that detects phosphorylated TrkA, the NGF receptor. We identified many compounds from this library that activated TrkA in CHO cells. The library was also screened for dose-dependent cytotoxicity in these cells. From these assays, we selected two compounds 1H5 and 5E5 for further study based on NGF agonist activity and low toxicity. […] 1H5 at 30 μM has 49±4% the effect of 100 ng/ml NGF. […] Despite this, 1H5 can protect differentiated PC12 neurons from apoptotic cell death induced by NGF withdrawal for 48 h. Cell death is 64±1% in control PC12 cells, 52±3% in cell treated with 30 μM 1H5, and 18±6% in cells treated with 100 ng/ml NGF. […] 5E5 at 30 μM has 212±11% the effect of 100 ng/ml NGF on CHO-Trk cells. It is non-toxic at concentrations up to 10 μM. […] 5E5 also causes phosphorylation of FRS2/SNT, a differentiation-specific target of NGF in neurons and PC12 cells (2.7-fold v.s. NGF).

T1 sequence (P06213 763-1382 limits assumed): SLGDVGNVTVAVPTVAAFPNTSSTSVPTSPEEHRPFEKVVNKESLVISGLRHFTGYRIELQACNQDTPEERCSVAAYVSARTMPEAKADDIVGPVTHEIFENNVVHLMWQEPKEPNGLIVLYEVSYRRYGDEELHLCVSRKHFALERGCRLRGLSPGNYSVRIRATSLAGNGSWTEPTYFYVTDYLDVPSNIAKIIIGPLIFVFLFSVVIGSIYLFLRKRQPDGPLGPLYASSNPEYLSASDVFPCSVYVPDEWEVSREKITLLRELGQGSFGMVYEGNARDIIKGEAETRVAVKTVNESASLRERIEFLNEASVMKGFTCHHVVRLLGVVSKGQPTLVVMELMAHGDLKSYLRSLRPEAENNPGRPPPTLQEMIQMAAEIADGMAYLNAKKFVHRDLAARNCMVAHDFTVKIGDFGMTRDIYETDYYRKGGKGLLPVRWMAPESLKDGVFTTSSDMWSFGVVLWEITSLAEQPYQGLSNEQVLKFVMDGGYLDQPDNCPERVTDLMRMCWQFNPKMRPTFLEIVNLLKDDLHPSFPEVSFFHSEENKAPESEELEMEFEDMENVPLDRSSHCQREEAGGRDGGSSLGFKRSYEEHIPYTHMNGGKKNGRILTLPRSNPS
T1 sequence (P06213 28-758 partner limits assumed): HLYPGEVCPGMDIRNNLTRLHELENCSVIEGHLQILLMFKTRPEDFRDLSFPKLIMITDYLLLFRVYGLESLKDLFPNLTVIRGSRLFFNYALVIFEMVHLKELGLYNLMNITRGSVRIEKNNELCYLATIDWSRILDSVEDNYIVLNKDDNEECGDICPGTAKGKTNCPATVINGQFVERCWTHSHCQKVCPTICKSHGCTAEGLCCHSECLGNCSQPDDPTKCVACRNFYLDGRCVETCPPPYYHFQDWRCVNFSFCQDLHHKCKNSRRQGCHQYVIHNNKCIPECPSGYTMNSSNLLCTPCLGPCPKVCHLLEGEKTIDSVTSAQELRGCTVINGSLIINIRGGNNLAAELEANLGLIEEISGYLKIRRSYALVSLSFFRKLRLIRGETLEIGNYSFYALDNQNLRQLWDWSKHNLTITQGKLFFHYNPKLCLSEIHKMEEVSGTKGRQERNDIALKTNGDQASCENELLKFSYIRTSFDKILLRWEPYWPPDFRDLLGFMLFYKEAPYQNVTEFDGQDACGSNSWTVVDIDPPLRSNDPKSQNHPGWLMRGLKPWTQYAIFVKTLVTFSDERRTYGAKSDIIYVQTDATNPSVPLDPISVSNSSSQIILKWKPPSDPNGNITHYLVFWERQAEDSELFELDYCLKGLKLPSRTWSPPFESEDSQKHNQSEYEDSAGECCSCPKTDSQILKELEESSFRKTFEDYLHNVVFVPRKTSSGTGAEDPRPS

CC(C)=CCc1cccc2c(-c3oc(CO)cc(=O)c3O)c[nH]c12 [LDIV99, 3-Hydroxy-6-hydroxymethyl-2-[7-(3-methyl-but-2-enyl)-1H-indol-3-yl]-pyran-4-one]
Autophosphorylation of the insulin receptor (human insulin receptor): dose-dependent autophosphorylation

NGF: nerve growth factor, ligand of TrkA, used as reference at 100 ng/ml
Cell death [1]: 18±6%

CC(C)=CCc1cccc2c(-c3c(O)c(=O)cc(CO)n3C)c[nH]c12 [LDIV148, 3-Hydroxy-6-hydroxymethyl-1-methyl-2-[7-(3-methyl-but-2-enyl)-1H-indol-3-yl]-pyridin-4-one]
Autophosphorylation of the insulin receptor (human insulin receptor): dose-dependent autophosphorylation
